This note sets out measurements from patent EP0590919A1, “Therapeutic agents for parkinson's disease” (KYOWA HAKKO KOGYO CO., LTD., priority 1992, dated 1994).

Series [1] deals with MPTP-treated C57BL/6 mice. The experiment in a line: Effect on locomotor activity in Parkinson's disease model in mice (MPTP). The following applies: for Amount of Active Movements (average count ± S.E.M): MPTP (+). In kind it is in vivo. The procedure: The experiment was performed by using several groups of 7-weeks-old male C57BL/6 mice (weighing 20 to 24 g, Japan SLC), each group consisting of 8 mice. MPTP (Aldrich Chemical Co., Inc.) dissolved in a physiological saline solution (Otsuka Pharmaceutical Co., Ltd.) was intraperitoneally administered to each mouse once a day for five consecutive days at a dose of 30 mg/kg. A test compound was suspended in injectable distilled water (Otsuka Phamaceutical Co., Ltd.) containing Tween 80 [polyoxyethylene (20) sorbitan monooleate]. L-DOPA (Kyowa Hakko Kogyo Co., Ltd.) was suspended in 0.3% CMC (sodium carboxylmethylcellulose) and bromocriptine was suspended in injectable distilled water. Thirty minutes after the final MPTP administration, the test compound suspensions and the control suspension [injectable distilled water (Otsuka Pharmaceutical Co., Ltd.) containing Tween 80] containing no test compound were orally administered to separate groups of the mice (0.1 ml per 10 g of body weight). […] Statistical comparison of the values was carried out by Student's t-test.

The target of the next series is T1, A₁ receptor (Cavia porcellus, UniProt P47745).
T1 construct: from tissue; host or cells: guinea pig cerebrum membrane preparation
T1 sequence (P47745 1-326): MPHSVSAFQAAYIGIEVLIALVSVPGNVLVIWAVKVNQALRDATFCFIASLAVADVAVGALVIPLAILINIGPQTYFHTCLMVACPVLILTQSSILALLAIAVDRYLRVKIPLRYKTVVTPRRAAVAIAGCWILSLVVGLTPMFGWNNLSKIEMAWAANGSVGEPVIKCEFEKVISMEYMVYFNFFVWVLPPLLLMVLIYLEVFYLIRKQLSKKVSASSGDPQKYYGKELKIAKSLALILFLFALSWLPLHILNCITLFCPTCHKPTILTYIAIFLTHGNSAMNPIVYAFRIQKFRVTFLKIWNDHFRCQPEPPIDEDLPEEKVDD
The experiment in a line: Adenosine A₁ receptor binding test (³H-CHA binding). Set-up: species or system guinea pig. The following applies: for inhibition at 100 µM: 10⁻⁴M; for inhibition at 100 µM / inhibition at 10 µM: guinea pig cerebrum; for inhibition at 10 µM: 10⁻⁵M; for Ki: Cheng-Prusoff's equation. The procedure: Cerebrum of a guinea pig was suspended in ice-cooled 50 mM Tris hydroxymethyl aminomethane hydrochloride (Tris HCl) buffer (pH 7.7) by using Polytron homogenizer (manufactured by […] Co.). […] The suspension was centrifuged under the same conditions, and the final precipitate was suspended once again in 50 mM Tris HCl buffer to give a tissue concentration of 100 mg (wet weight)/ml. The tissue suspension was incubated at 37°C for 30 minutes in the presence of 0.02 unit/mg tissue of adenosine deaminase (manufactured by Sigma Co.). The tissue suspension was then centrifuged (50,000 x g, 10 minutes), and 50 mM Tris HCl buffer was added to the precipitate to adjust the concentration of tissue to 10 mg (wet weight)/ml. […] The mixture solution was allowed to stand at 25°C for 90 minutes and then rapidly filtered by suction through a glass fiber filter (GF/C manufactured by Whatman Co.). […] The radioactivity on the filter was determined with a liquid scintillation counter (manufactured by Packard Instrument Co.). […] The inhibition constant (Ki value) shown in the table was calculated by the Cheng-Prusoff's equation.

The next series concerns dd-strain male mice. The experiment in a line: Acute toxicity test (minimum lethal dose, oral). The class given is in vivo. The following applies: oral administration, three mice per group, mortality seven days after administration. The method, then:
Test compounds were orally administered to groups of dd-strain male mice weighing 20 ± 1 g, each group consisting of three mice. Seven days after the administration, minimum lethal dose (MLD) of each compound was determined by observing the mortality.

The test system of series [2] is Haloperidol-Induced Catalepsy. The experiment in a line: Effect on haloperidol-induced catalepsy. In kind it is in vivo, mice. The settings on record: for ED50: Mus musculus, 1 h, ten mice at each dose, effective = catalepsy score 3 or less, Probit analysis, oral, read-out: ED₅₀; for Number of the Animals Showing Remission: of five mice, catalepsy score not more than 4 points; for Number of the Animals Showing Remission / Remission Rate (%) / Total Score: 10 mg/kg orally; for Remission Rate (%): rate of decrease in total score based on control group; for Total Score: total catalepsy score of five mice (25 points at the full), haloperidol 1.0 mg/kg i.p. Put shortly:
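Mice got haloperidol 1.0 mg/kg i.p. in 0.3% CMC, then test compounds orally 1 hr later in 0.3% CMC or Tween 80/water. Catalepsy was scored on a 4.5 cm-high bar 1 hr after dosing; remission meant score ≤4 points. ED₅₀ came from Probit analysis.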

The next series has as its target T2, A₂ receptor (Rattus norvegicus, UniProt P30543).
T2 construct: from tissue; host or cells: rat corpus striatum membrane preparation
The experiment in a line: Adenosine A₂ receptor binding test (³H-NECA binding). The following applies: for inhibition at 0.1 µM / inhibition at 1 µM / inhibition at 10 µM / inhibition at 100 µM: read-out: Inhibition (%) A₂ Receptor; for Ratio (A₁/A₂): ratio of Ki values A₁/A₂.

Broadly, the inhibition is the drop in the measured response relative to a control, in per cent. Usually Ki stands for the dissociation constant of the complex between target and ligand, obtained from inhibition or displacement. Read a high Ki as lower affinity.

Read-outs that look alike come from different tables or passages of the source. Marks after values point to notes of the source that are not given here. Bounds are passed on as bounds.

T2 sequence (P30543 whole entry): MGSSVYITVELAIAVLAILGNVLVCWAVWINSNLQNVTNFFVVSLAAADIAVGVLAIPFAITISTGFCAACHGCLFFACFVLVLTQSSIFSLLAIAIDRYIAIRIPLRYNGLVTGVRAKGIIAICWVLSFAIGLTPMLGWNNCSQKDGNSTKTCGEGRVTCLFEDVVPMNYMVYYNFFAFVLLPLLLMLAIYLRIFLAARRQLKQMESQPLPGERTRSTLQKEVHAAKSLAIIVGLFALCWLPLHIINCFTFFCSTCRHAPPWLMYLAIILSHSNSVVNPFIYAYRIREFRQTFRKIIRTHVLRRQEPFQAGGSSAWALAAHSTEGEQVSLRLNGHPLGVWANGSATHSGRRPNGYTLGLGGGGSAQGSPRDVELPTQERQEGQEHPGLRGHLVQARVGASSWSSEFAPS

As for `CC(C)C[C@H]1C(=O)N2CCC[C@H]2[C@]2(O)O[C@](NC(=O)[C@@H]3C=C4c5cccc6[nH]c(Br)c(c56)C[C@H]4N(C)C3)(C(C)C)C(=O)N12` [Bromocriptine, bromocriptine, reference compound], in series [1] (mouse, in vivo), the “inhibitory activity against the depression of locomotor activity caused by MPTP” value was “only a weak inhibitory activity”.
Turning to `CCn1c(=O)c2c(nc(/C=C/c3ccc4c(c3)OCO4)n2C)n(CC)c1=O` [Compound 16, (E)-1,3-Diethyl-7-methyl-8-(3,4-methylenedioxystyryl)xanthine], at A₁ receptor, the inhibition at 100 µM stood at 72% and the inhibition at 10 µM amounted to 53%. Also, the MLD in the series on dd-strain male mice is on record as above 300 mg/kg. Besides, in series [2], the ED50 turned out to be 0.76 mg/kg, the “Number of the Animals Showing Remission” value worked out at 5, the “Remission Rate (%)” value was 84% and the “Total Score” value came out at 4. Further, at A₂ receptor, the inhibition at 0.1 µM came to 80%, the inhibition at 1 µM came out at 96%, the inhibition at 10 µM was determined as 88% and the inhibition at 100 µM is 93%. The compound further displayed a Ki on A₂ receptor (³H-NECA binding) of 6.1 nM.
Regarding `CCn1c(=O)c2c(nc(/C=C/c3ccc4c(c3)OCCO4)n2C)n(CC)c1=O` [Compound 18, (E)-8-[2-(1,4-Benzodioxan-6-yl)vinyl]-1,3-diethyl-7-methylxanthine], at A₁ receptor, the inhibition at 100 µM is 66% and the inhibition at 10 µM stood at 56%. The MLD in the series with dd-strain male mice is above 300 mg/kg. Moreover, in series [2], the ED50 was 1.9 mg/kg, the “Number of the Animals Showing Remission” value is 5, the “Remission Rate (%)” value is 84% and the “Total Score” value was 4. On A₂ receptor, the inhibition at 0.1 µM was 84%, the inhibition at 1 µM is 90%, the inhibition at 10 µM is 104% and the inhibition at 100 µM was 98%. The Ki at A₂ receptor (³H-NECA binding) came to 1.5 nM.
`COc1ccc(/C=C/c2nc3c([nH]2)c(=O)n(C)c(=O)n3C)c(OC)c1OC` [Compound 19, (E)-8-(2,3,4-Trimethoxystyryl)theophylline]: at A₁ receptor, the inhibition at 100 µM was found to be 31%, the inhibition at 10 µM was found to be 10% and the Ki is above 100000 nM. This compound also showed an MLD with dd-strain male mice above 300 mg/kg. Moreover, on A₂ receptor, the “Ratio (A₁/A₂)” value was above 320, the inhibition at 0.1 µM was 65%, the inhibition at 1 µM is 87% and the inhibition at 10 µM worked out at 92%. Moreover, at A₂ receptor, the inhibition at 100 µM amounted to 91%. In addition, the Ki at A₂ receptor (³H-NECA binding) came to 310 nM.
As to `COc1ccc(/C=C/c2nc3c(c(=O)n(C)c(=O)n3C)n2C)c(OC)c1OC` [Compound 20, (E)-8-(2,3,4-Trimethoxystyryl)caffeine], at A₁ receptor, the inhibition at 100 µM came to 1%, the inhibition at 10 µM amounted to 11% and the Ki is above 100000 nM. The same compound gave an MLD in the series with dd-strain male mice above 300 mg/kg. Moreover, the “Amount of Active Movements (average count ± S.E.M)” value in series [1] (test compound 2.5 mg/kg orally, 30 minutes starting 30 minutes after administration) worked out at 937 ±189.5 count. In addition, in series [2], the ED50 was 0.35 mg/kg, the “Number of the Animals Showing Remission” value came out at 5, the “Remission Rate (%)” value is reported as 72% and the “Total Score” value is given as 7. On A₂ receptor, the “Ratio (A₁/A₂)” value is > 2,000, the inhibition at 0.1 µM was 51%, the inhibition at 1 µM came to 83% and the inhibition at 10 µM is 90%. In addition, the inhibition at 100 µM on A₂ receptor was determined as 88%. For the same compound, the Ki on A₂ receptor (³H-NECA binding) stood at 50 nM.
With `COc1ccc(/C=C/c2nc3c([nH]2)c(=O)n(C)c(=O)n3C)c(C)c1C` [Compound 21, (E)-8-(4-Methoxy-2,3-dimethylstyryl)theophylline], at A₁ receptor, the inhibition at 100 µM worked out at 40%, the inhibition at 10 µM is 36% and the Ki was above 100000 nM. The MLD in the series on dd-strain male mice was above 100 mg/kg. Moreover, in series [2], the “Number of the Animals Showing Remission” value came to 4, the “Remission Rate (%)” value worked out at 24% and the “Total Score” value stood at 19. On A₂ receptor, the inhibition at 0.1 µM amounted to 56%, the inhibition at 1 µM turned out to be 68%, the inhibition at 10 µM is 83% and the inhibition at 100 µM was determined as 79%. The affinity on A₂ receptor (³H-NECA binding), expressed as Ki, was 22 nM.
On to `COc1ccc(/C=C/c2nc3c(c(=O)n(C)c(=O)n3C)n2C)c(C)c1C` [Compound 22, (E)-8-(4-Methoxy-2,3-dimethylstyryl)caffeine], for which, on A₁ receptor, the inhibition at 100 µM amounted to 1%, the inhibition at 10 µM was determined as 1% and the Ki is above 100000 nM. The same compound gave an MLD in the series with dd-strain male mice above 100 mg/kg. In addition, in series [2], the “Number of the Animals Showing Remission” value is on record as 3, the “Remission Rate (%)” value stood at 20% and the “Total Score” value is 20. On A₂ receptor, the “Ratio (A₁/A₂)” value is reported as > 33,000, the inhibition at 0.1 µM stood at 78%, the inhibition at 1 µM stood at 85% and the inhibition at 10 µM came out at 78%. Besides, the inhibition at 100 µM on A₂ receptor amounted to 81%. The Ki on A₂ receptor (³H-NECA binding) was determined as 3 nM.
Consider `Cn1c(=O)c2[nH]c(/C=C/c3ccc4c(c3)OCO4)nc2n(C)c1=O` [Compound 23, (E)-8-(3,4-Methylenedioxystyryl)theophylline], for which, at A₁ receptor, the inhibition at 100 µM was 38%, the inhibition at 10 µM came to 32% and the inhibitory constant (Ki) was above 100000 nM. In addition, the MLD with dd-strain male mice is recorded as above 300 mg/kg. Further, on A₂ receptor (10⁻⁴M, ³H-NECA binding, rat corpus striatum), the inhibition at 100 µM turned out to be 81%. Also, the inhibition at 10 µM on A₂ receptor (10⁻⁵M, ³H-NECA binding, rat corpus striatum) was 90%. Further, at A₂ receptor (10⁻⁶M, ³H-NECA binding, rat corpus striatum), the inhibition at 1 µM was 60%. Besides, on A₂ receptor (10⁻⁷M, ³H-NECA binding, rat corpus striatum), the inhibition at 0.1 µM came out at 38%.
As for `Cn1c(=O)c2c(nc(/C=C/c3ccc4c(c3)OCO4)n2C)n(C)c1=O` [Compound 24, (E)-8-(3,4-Methylenedioxystyryl)caffeine], on A₁ receptor, the inhibition at 100 µM is -25%, the inhibition at 10 µM is -4% and the Ki is above 100000 nM. The compound also registered an MLD with dd-strain male mice above 300 mg/kg. Besides, at A₂ receptor, the “Ratio (A₁/A₂)” value is on record as > 3,800, the inhibition at 0.1 µM was found to be 62%, the inhibition at 1 µM stood at 57% and the inhibition at 10 µM is 75%. Moreover, the inhibition at 100 µM at A₂ receptor amounted to 85%. At A₂ receptor (³H-NECA binding), this compound showed a Ki of 26 nM.
`N[C@@H](Cc1ccc(O)c(O)c1)C(=O)O` [L-DOPA, reference compound]: the “Amount of Active Movements (average count ± S.E.M)” value in series [1] (L-DOPA 300 mg/kg orally) is reported as 561 ±271.01^1) count. The “inhibitory activity against the depression of locomotor activity caused by MPTP” value in series [1] (oral, L-DOPA 300 mg/kg, bromocriptine 40 mg/kg, Compounds (I) 10 mg/kg or less than 10 mg/kg) was “only a weak inhibitory activity”.
